Measurements taken from patent publication US10555987B2, “GHRH agonists for the treatment of ischemic disorders” (UNIVERSITY OF MIAMI, priority 2012, dated 2020).
Marks after values point to notes of the source that are not given here. Non-standard residues stand in square brackets, D forms with d. Residues, ends and D or L forms follow the SMILES beside them. *: point of attachment. Desaminotyrosyl = O=C(CCc1ccc(O)cc1)*; NMeY = CN[C@@H](Cc1ccc(O)cc1)C(=O)O; Nle = CCCC[C@H](N)C(=O)O; Orn = NCCC[C@H](N)C(=O)O; Abu = CC[C@H](N)C(=O)O

Key:
GHRH receptor [1] = target: T1, GHRH receptor (Homo sapiens, UniProt Q02643); test: Receptor binding in vitro, 125I-labeled [His1,Nle27]-hGHRH(1-32)NH2, membrane receptors of human anterior pituitary cells (Table 14); details: for Relative affinity (Binding potency) compared to JI-38: JI-38 = 1; for Relative affinity (Binding potency) compared to hGHRH(1-29): hGHRH(1-29)NH2 = 1
T1 sequence (Q02643 23-423): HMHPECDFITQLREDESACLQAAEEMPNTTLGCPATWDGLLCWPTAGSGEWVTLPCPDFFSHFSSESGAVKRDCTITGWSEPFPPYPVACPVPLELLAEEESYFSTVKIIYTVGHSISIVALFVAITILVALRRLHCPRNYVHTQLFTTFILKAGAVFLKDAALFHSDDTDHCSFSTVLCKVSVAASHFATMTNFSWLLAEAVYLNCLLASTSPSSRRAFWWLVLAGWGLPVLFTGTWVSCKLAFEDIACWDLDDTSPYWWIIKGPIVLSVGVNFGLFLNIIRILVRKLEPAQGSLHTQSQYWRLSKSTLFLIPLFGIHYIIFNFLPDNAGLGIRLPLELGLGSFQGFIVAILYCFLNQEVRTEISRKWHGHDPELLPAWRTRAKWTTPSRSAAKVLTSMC
Text: Normal human pituitary was purchased from the National Hormone and Peptide Program (UCLA Medical Center, Torrance, Calif.).

GHRH receptor [2] = target: T1, GHRH receptor; test: GHRH receptor binding, competition with 125I-labeled JV-1-42, human pituitary membrane homogenates (Table 7); parameters: Normal human pituitaries were purchased from the National Hormone and Peptide Program; tissue National Hormone and Peptide Program (A.F. Parlow, Harbor-UCLA Medical Center, Torrance, Calif.); host or cells: normal human pituitary, membrane fraction; details: JI-38 = 1, Table 7
Text: Normal human pituitaries were purchased from the National Hormone and Peptide Program (A.F. Parlow, Los Angeles, County Harbor-UCLA Medical Center, Torrance, Calif.).

GH release [3] = test: In vivo endocrine activity, GH release after subcutaneous administration (Table 9); details: rat, subcutaneous (s.c.) injection
Protocol: Subcutaneous Administration. Adult male rats were used and anesthetized with pentobarbital (6 mg/100 g, b.w.), by i.p. injection. […] Blood samples were taken from the jugular vein 5, 15 and/or 30 minutes after the injection. The blood samples were centrifuged, plasma was removed and the GH level was measured byELISA. The results are summarized in terms of potency in Table 9.

GH release [4] = test: GH releasing potency in vivo, subcutaneous administration (Example 14, Table 12); parameters: species or system rat; details: s.c.; for Serum GH level at selected time after injection (ng/ml), 0 min / Serum GH level at selected time after injection (ng/ml), 15 min / Serum GH level at selected time after injection (ng/ml), 30 min: male rats, dose 3 μg/kg, mean ± SEM
Protocol: Male Sprague-Dawley rats, weighing 200-250 g, were purchased from Charles River Laboratory (Wilmington, Mass.) and used for experiments. All animal procedures were approved by the Veterans Affairs Animal Care and Use Committee and were conducted in accordance with additional institutional guidelines as well. Briefly, groups of 5-6 animals were used in each experiment. The rats were anesthetized with 50 mg/kg of sodium pentobarbital (Nembutal, Lundbeck Inc., Deerfield, Ill.). Twenty min after inducing anesthesia, GHRH(1-29)NH2, JI-38, or new analogs were injected into the animals intravenously (i.v.) or subcutaneously (s.c.). The peptides were dissolved in 0.01 M acetic acid to get 1 μg/μl stock solution, and then diluted with 5% mannitol. Control rats received 5% mannitol only. Blood samples were collected from the jugular vein at selected times and were used for serum preparation. Concentrations of GH in rat sera were determined by ELISA. The relative potencies of tested peptides were calculated using GHRH(1-29)NH2 and JI-38 for comparison, whose potency was defined as 1. The equivalent dosage of GHRH(1-29)NH2 to reach the same level of serum growth hormone release after injection of the specific tested peptide was determined from a GHRH(1-29)NH2 standard curve using Origin 6.0 software. […] Serum GH was determined using the rat Growth Hormone ELISA kit (ALPCO Diagnostics, Mill Valley, Calif.) according to the manufacturer's instruction. Absorbance at 405 nm was measured by a Victor 3 Multi-label Counter (Perkin-Elmer, Waltham, Md.).

GH release [5] = test: In vivo endocrine activity, GH release after intravenous administration (Table 8); details: rat, i.v. injection
Protocol: In vivo tests on endocrine activity of new GHRH agonists (Intravenous administration). For in vivo tests based on intravenous administration, adult male Sprague-Dawley rats were anesthetized with pentobarbital (6 mg/100/g, b.w.), and GHRH agonists were injected 20 minutes after the injection of pentobarbital. Blood samples were taken from the jugular vein (pretreated level), immediately after hGHRH(1-29)NH2 injection (as a control) or after hGHRH analogs injection. Blood samples were taken from the jugular vein 5, 15 and 30 minutes after the injection. The blood samples were centrifuged, plasma was removed and the GH level was measured by ELISA.

Compound	Relative affinity (Binding potency) compared to JI-38 (GHRH receptor [1])	Relative affinity (Binding potency) compared to hGHRH(1-29) (GHRH receptor [1])	Relative affinity (Binding potency) vs JI-38 (GHRH receptor [2])	GH releasing potency relative to JI-38 (=1) (GH release [3]; 15 min after)	GH releasing potency relative to JI-38 (=1) (GH release [3]; 30 min after)	Serum GH level at selected time after injection (ng/ml), 0 min (GH release [4])	Serum GH level at selected time after injection (ng/ml), 15 min (GH release [4])	Serum GH level at selected time after injection (ng/ml), 30 min (GH release [4])	GH-releasing potency after s.c. administration (in words) (GH release [4])	Relative potency compared to GHRH(1-29), 15 min (GH release [4])	Relative potency compared to JI-38, 15 min (GH release [4])	Relative potency compared to GHRH(1-29), 30 min (GH release [4])	Relative potency compared to JI-38, 30 min (GH release [4])	GH releasing potency in vivo relative to JI-38 (=1) (GH release [5]; 5 min after)	GH releasing potency in vivo relative to JI-38 (=1) (GH release [5]; 15 min after)	GH releasing potency in vivo relative to JI-38 (=1) (GH release [5]; 30 min after)
CCCC[C@H](NC(=O)[C@@H](NC(=O)[C@H](CC(=O)O)NC(=O)[C@H](CCC(N)=O)NC(=O)[C@H](CC(C)C)NC(=O)[C@H](CC(C)C)NC(=O)[C@H](CCCN)NC(=O)[C@H](CCCNC(=N)N)NC(=O)[C@H](C)NC(=O)[C@H](CO)NC(=O)[C@H](CC(C)C)NC(=O)[C@H](CCC(N)=O)NC(=O)[C@H](CC)NC(=O)[C@H](CC(C)C)NC(=O)[C@@H](NC(=O)[C@H](CCCN)NC(=O)[C@H](CCCNC(=N)N)NC(=O)[C@H](Cc1ccc(O)cc1)NC(=O)[C@H](CO)NC(=O)[C@H](CCC(N)=O)NC(=O)[C@@H](NC(=O)[C@H](Cc1ccccc1)NC(=O)[C@@H](NC(=O)[C@H](C)NC(=O)[C@H](CC(=O)O)NC(=O)[C@@H](C)NC(=O)CCc1ccc(O)cc1)[C@@H](C)CC)[C@@H](C)O)C(C)C)[C@@H](C)CC)C(=O)N[C@@H](CC(=O)O)C(=O)N[C@H](CCCNC(=N)N)C(=O)NC [Peptide P-27401, [Dat^1, D-Ala^2, Gln^8, Orn^12, Abu^15, Orn^21, Nle^27, Asp^28, D-Arg^29]hGHRH(1-29)NH—CH3] (Desaminotyrosyl-[dA]DAIFTQSYR[Orn]VL[Abu]QLSAR[Orn]LLQDI[Nle]D[dR]-NHMe)	1.05	2.94	1.59	0.61	0.73	24.6 ± 5.3 ng/mL	217.9 ± 37.0 ng/mL	204.1 ± 23.7 ng/mL	significantly higher potencies at 30 minutes than at 15 minutes	58.8	0.93	253.4	2.27			
CCCC[C@H](NC(=O)[C@@H](NC(=O)[C@H](CC(=O)O)NC(=O)[C@H](CCC(N)=O)NC(=O)[C@H](CC(C)C)NC(=O)[C@H](CC(C)C)NC(=O)[C@H](CCCN)NC(=O)[C@H](CCCNC(=N)N)NC(=O)[C@H](C)NC(=O)[C@H](CO)NC(=O)[C@H](CC(C)C)NC(=O)[C@H](CCC(N)=O)NC(=O)[C@H](CC)NC(=O)[C@H](CC(C)C)NC(=O)[C@@H](NC(=O)[C@H](CCCN)NC(=O)[C@H](CCCNC(=N)N)NC(=O)[C@H](Cc1ccc(O)cc1)NC(=O)[C@H](CO)NC(=O)[C@H](CCC(N)=O)NC(=O)[C@@H](NC(=O)[C@H](Cc1ccccc1)NC(=O)[C@@H](NC(=O)[C@H](C)NC(=O)[C@H](CC(=O)O)NC(=O)[C@H](C)NC(=O)[C@H](Cc1ccc(O)cc1)NC)[C@@H](C)CC)[C@@H](C)O)C(C)C)[C@@H](C)CC)C(=O)N[C@@H](CO)C(=O)N[C@@H](CCCNC(=N)N)C(=O)NC [Peptide P-27405, [N—Me-Tyr^1, Gln^8, Orn^12, Abu^15, Orn^21, Nle^27]hGHRH(1-29)NH—CH3] (H-[NMeY]ADAIFTQSYR[Orn]VL[Abu]QLSAR[Orn]LLQDI[Nle]SR-NHMe)	1.09	3.04	4.03	1.60	1.13	21.8 ± 5.9 ng/mL	227.9 ± 10.5 ng/mL	143.3 ± 6.1 ng/mL		62.3	0.99	135.2	1.21			
CCCC[C@H](NC(=O)[C@@H](NC(=O)[C@H](CC(=O)O)NC(=O)[C@H](CCC(N)=O)NC(=O)[C@H](CC(C)C)NC(=O)[C@H](CC(C)C)NC(=O)[C@H](CCCN)NC(=O)[C@H](CCCNC(=N)N)NC(=O)[C@H](C)NC(=O)[C@H](CO)NC(=O)[C@H](CC(C)C)NC(=O)[C@H](CCC(N)=O)NC(=O)[C@H](CC)NC(=O)[C@H](CC(C)C)NC(=O)[C@@H](NC(=O)[C@H](CCCN)NC(=O)[C@H](CCCNC(=N)N)NC(=O)[C@H](Cc1ccc(O)cc1)NC(=O)[C@H](CO)NC(=O)[C@H](CCC(N)=O)NC(=O)[C@@H](NC(=O)[C@H](Cc1ccccc1)NC(=O)[C@@H](NC(=O)[C@H](C)NC(=O)[C@H](CC(=O)O)NC(=O)[C@H](C)NC(=O)[C@H](Cc1ccc(O)cc1)NC)[C@@H](C)CC)[C@@H](C)O)C(C)C)[C@@H](C)CC)C(=O)N[C@@H](CC(=O)O)C(=O)N[C@@H](CCCNC(=N)N)C(=O)NC [Peptide P-27406, [N—Me-Tyr^1, Gln^8, Orn^12, Abu^15, Orn^21, Nle^27, Asp^28]hGHRH(1-29) NH—CH3] (H-[NMeY]ADAIFTQSYR[Orn]VL[Abu]QLSAR[Orn]LLQDI[Nle]DR-NHMe)	2.95	8.22	14.5	0.47	0.50	21.3 ± 4.8 ng/mL	492.6 ± 21.8 ng/mL	282 ± 17.8 ng/mL	significantly higher potencies at 30 minutes than at 15 minutes	170	2.69*	449.7				
[N—Me-Tyr^1, D-Ala^2, Gln^8, Orn^12, Abu^15, Orn^21, Nle^27, Asp^28, Apa^30]hGHRH(1-30)NH—CH2—CH3 [Peptide P-28475]														0.19	0.36	0.92
[N—Me-Tyr^1, D-Ala^2, Gln^8, Orn^12, Abu^15, Orn^21, Nle^27, Asp^28, Har^30]hGHRH(1-30)NH—CH3 [Peptide P-27450]														0.07	0.11	0.49
